The results in this text go back to ChEMBL document CHEMBL2074322, “Bidirectional transport of rhodamine 123 and Hoechst 33342, fluorescence probes of the binding sites on P-glycoprotein, across MDCK-MDR1 cell monolayers” (J Pharm Sci, 2004).

Holding throughout (format): functional, cell-based
What all share (details): dog

The target of series [1] is T1, ATP-dependent translocase ABCB1 (Homo sapiens, UniProt P08183). In words: TP_TRANSPORTER: transepithelial transport of Rhodamine 123 in the presence of Daunorubicin (Daunomycin) at a concentration of 80uM in MDR1-expressing MDCK cells.
In series [2] the target is T1, ATP-dependent translocase ABCB1. Nature of the series: TP_TRANSPORTER: transepithelial transport of Hoechst 33342 in the presence of Daunorubicin (Daunomycin) at a concentration of 80uM in MDR1-expressing MDCK cells.
Series [3] has the same target. Nature of the series: TP_TRANSPORTER: transepithelial transport in MDR1-expressing MDCK cells.
Series [4] has the same target. In words: TP_TRANSPORTER: transepithelial transport of Rhodamine 123 in the presence of Hoechst 33342 at a concentration of 5uM in MDR1-expressing MDCK cells.

T1 sequence (P08183 whole entry): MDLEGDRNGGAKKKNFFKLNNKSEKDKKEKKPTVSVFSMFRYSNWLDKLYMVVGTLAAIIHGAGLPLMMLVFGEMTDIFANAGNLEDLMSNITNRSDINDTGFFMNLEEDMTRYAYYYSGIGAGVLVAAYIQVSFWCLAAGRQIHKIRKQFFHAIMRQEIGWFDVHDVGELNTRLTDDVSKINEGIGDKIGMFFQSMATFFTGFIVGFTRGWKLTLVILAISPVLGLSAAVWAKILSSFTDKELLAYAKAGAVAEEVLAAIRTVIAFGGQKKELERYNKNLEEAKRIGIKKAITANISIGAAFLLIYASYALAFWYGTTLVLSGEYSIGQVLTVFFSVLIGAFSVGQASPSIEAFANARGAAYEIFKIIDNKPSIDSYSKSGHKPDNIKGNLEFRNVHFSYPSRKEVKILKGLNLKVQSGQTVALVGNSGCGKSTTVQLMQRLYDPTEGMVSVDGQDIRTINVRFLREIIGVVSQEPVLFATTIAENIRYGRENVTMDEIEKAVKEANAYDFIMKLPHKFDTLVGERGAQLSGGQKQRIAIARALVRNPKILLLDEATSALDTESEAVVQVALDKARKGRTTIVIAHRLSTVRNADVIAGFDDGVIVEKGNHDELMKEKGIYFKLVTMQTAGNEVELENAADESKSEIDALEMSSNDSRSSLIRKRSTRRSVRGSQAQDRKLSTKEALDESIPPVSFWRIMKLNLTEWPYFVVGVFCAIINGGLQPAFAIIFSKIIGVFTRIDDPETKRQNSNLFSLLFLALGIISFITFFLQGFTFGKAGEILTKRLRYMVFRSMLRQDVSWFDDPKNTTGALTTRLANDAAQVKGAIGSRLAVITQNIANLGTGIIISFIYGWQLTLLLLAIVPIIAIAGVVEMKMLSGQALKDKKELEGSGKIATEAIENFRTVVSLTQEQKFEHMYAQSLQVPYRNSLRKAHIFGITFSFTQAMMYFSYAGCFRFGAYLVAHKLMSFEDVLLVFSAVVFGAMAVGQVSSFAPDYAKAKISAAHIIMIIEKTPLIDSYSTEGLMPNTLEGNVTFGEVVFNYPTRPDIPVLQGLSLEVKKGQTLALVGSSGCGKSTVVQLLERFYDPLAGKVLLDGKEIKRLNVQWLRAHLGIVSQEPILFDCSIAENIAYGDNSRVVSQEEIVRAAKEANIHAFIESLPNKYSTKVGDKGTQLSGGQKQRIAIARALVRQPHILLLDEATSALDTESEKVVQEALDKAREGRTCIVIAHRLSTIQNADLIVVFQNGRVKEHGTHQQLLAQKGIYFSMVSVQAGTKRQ

For the molecule `COc1cccc2c1C(=O)c1c(O)c3c(c(O)c1C2=O)C[C@@](O)(C(C)=O)C[C@@H]3O[C@H]1C[C@H](N)[C@H](O)[C@H](C)O1` [DAUNORUBICIN], the Activity result in series [1] and in series [2] was “inhibitor [+]” in each case. As to `CCOc1ccc(-c2nc3cc(-c4nc5cc(N6CCN(C)CC6)ccc5[nH]4)ccc3[nH]2)cc1`, the Activity entry in series [3] is “substrate [+]”; in series [4], “inhibitor [+]”. Turning to `COC(=O)c1ccccc1-c1c2ccc(=N)cc-2oc2cc(N)ccc12.Cl` [RHODAMINE123], the Activity result in series [3] was “substrate [+]”.
